Here are results for eight molecules from PubChem BioAssay (NCI).

Among the test systems are SK-MEL-28 melanoma; T-47D breast; SN12C renal; OVCAR-3 ovarian; SK-MEL-2 melanoma; MCF7 breast; SF-539 CNS; HL-60(TB) leukemia; HOP-62 NSCLC; KM12 colon.
Common to all, as to assay: NCI-60 cell line screen, 48 h

The structures appear in SMILES notation.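 Tested at 5 concentrations; 48 h exposure; 96-well plates; endpoints linearly interpolated, else capped at highest concentration. GI50 marks 50% less growth. At the TGI there is no net growth.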

On to `O=C1C=CC(=O)N1c1ccc2c(c1)Cc1cc(NC(=O)C(F)(F)F)ccc1-2`, for which the TGI in the assay with SK-MEL-28 melanoma was 34.4 µM; with T-47D breast, 53.2 µM; in the assay on SN12C renal, 32.1 µM; in the assay with OVCAR-3 ovarian, 31.2 µM; in the assay with SK-MEL-2 melanoma, 34.2 µM; in the assay with MCF7 breast, 34.4 µM. For the same molecule, the TGI amounted to 32.8 µM in the assay on SF-539 CNS, 38.1 µM with HL-60(TB) leukemia, 50.7 µM in the assay on HOP-62 NSCLC and 40.6 µM in the assay with KM12 colon.
As to `CC1=C([Se]CC(OC(=O)[C@@H](CSSC(C)(C)C)NC(=O)C(C)(C)C)C(=O)NCCCCCC(=O)OCc2ccccc2)C(=O)c2ccccc2C1=O` (stereo not given in full), the GI50 is 1.92 µM with SK-MEL-28 melanoma; 2.19 µM with T-47D breast; 2 µM with SN12C renal; 1.87 µM in the assay with OVCAR-3 ovarian; 2.26 µM in the assay with SK-MEL-2 melanoma; 3.04 µM with MCF7 breast. The GI50 in the assay on SF-539 CNS was 1.9 µM; in the assay with HL-60(TB) leukemia, 2.51 µM; in the assay with HOP-62 NSCLC, 1.01 µM; in the assay with KM12 colon, 1.8 µM. The TGI is 3.53 µM in the assay with SK-MEL-28 melanoma; 6.39 µM in the assay with T-47D breast; 3.89 µM with SN12C renal; 3.38 µM with OVCAR-3 ovarian; 5.06 µM in the assay on SK-MEL-2 melanoma; 9.74 µM in the assay with MCF7 breast. In addition, the TGI in the assay with SF-539 CNS amounted to 3.36 µM; in the assay with HL-60(TB) leukemia it was 5.98 µM; in the assay with HOP-62 NSCLC it was 3.03 µM; with KM12 colon, 3.5 µM.
Turning to `CC1(C)CC2=NOS3=C2C(=NO3)C1c1ccccn1` (stereo not given), the TGI in the assay on SK-MEL-28 melanoma, in the assay with T-47D breast, in the assay on SN12C renal, with OVCAR-3 ovarian, in the assay with SK-MEL-2 melanoma and in the assay with MCF7 breast was greater than 100 µM each time. For the same molecule, the TGI with SF-539 CNS was greater than 100 µM; in the assay with HL-60(TB) leukemia it was 51.7 µM; with HOP-62 NSCLC, greater than 100 µM; with KM12 colon, greater than 100 µM.
Take `N#C/C(=C\c1ccc(Cl)cc1)n1nnc2cc(F)c(F)cc21`: the GI50 in the assay with SK-MEL-28 melanoma was 2.04 µM; in the assay with T-47D breast it was 1.31 µM; in the assay with SN12C renal it was 1.89 µM; in the assay on OVCAR-3 ovarian it was 1.71 µM; with SK-MEL-2 melanoma, 2.03 µM; with MCF7 breast, 1.53 µM. Besides, the GI50 in the assay with SF-539 CNS was 1.97 µM; in the assay with HL-60(TB) leukemia, 2.36 µM; in the assay on HOP-62 NSCLC, 2.29 µM; in the assay with KM12 colon it was 1.95 µM. Also, the TGI in the assay with SK-MEL-28 melanoma was 4.38 µM; with T-47D breast, 4.72 µM; in the assay on SN12C renal it was 4.02 µM; in the assay with OVCAR-3 ovarian, 3.22 µM; in the assay on SK-MEL-2 melanoma it was 4.83 µM; in the assay on MCF7 breast, 4.49 µM. Further, the TGI in the assay with SF-539 CNS came to 3.77 µM; in the assay with HL-60(TB) leukemia, 6.82 µM; in the assay on HOP-62 NSCLC, 6.32 µM; in the assay on KM12 colon, 4.29 µM.
For `O=C(c1cccs1)c1c(C(F)(F)F)n([O-])c2cc(C(F)(F)F)ccc2[n+]1=O`, the GI50 in the assay on SK-MEL-28 melanoma is 0.694 µM; in the assay on T-47D breast, 0.154 µM; with SN12C renal, 0.2 µM; in the assay with OVCAR-3 ovarian, 0.333 µM; in the assay with SK-MEL-2 melanoma it was 0.915 µM; with MCF7 breast, 0.187 µM. Moreover, the GI50 in the assay with SF-539 CNS was 0.195 µM; with HL-60(TB) leukemia it was less than 0.0236 µM; in the assay on HOP-62 NSCLC, 0.174 µM; in the assay on KM12 colon, 0.183 µM. The TGI worked out at 2.09 µM in the assay with SK-MEL-28 melanoma; 0.4 µM in the assay with T-47D breast; 0.408 µM in the assay with SN12C renal; 0.704 µM with OVCAR-3 ovarian; 2.46 µM in the assay on SK-MEL-2 melanoma; 0.41 µM with MCF7 breast. Besides, the TGI in the assay on SF-539 CNS was 0.409 µM; in the assay on HL-60(TB) leukemia, 0.135 µM; with HOP-62 NSCLC, 0.337 µM; with KM12 colon, 0.38 µM.
Turning to `OCC1OC(O)C(N=Cc2ccc3c(c2)OCO3)C(O)C1O` (stereo not given), the TGI in the assay on SK-MEL-28 melanoma, with T-47D breast, in the assay on SN12C renal, in the assay with OVCAR-3 ovarian, in the assay with SK-MEL-2 melanoma and in the assay on MCF7 breast was greater than 100 µM in each case. Moreover, the TGI with SF-539 CNS, in the assay on HL-60(TB) leukemia, with HOP-62 NSCLC and with KM12 colon was greater than 100 µM in each case.
In the case of `Cc1ccc(-c2nc3nc(-c4ccc(Cl)cc4)nc(N4CCCNCC4)c3o2)cc1`, the GI50 in the assay with SK-MEL-28 melanoma was 1.73 µM; with T-47D breast it was 1.94 µM; in the assay on SN12C renal it was 1.66 µM; with OVCAR-3 ovarian, 1.94 µM; with SK-MEL-2 melanoma it was 2.04 µM; with MCF7 breast it was 1.7 µM. The GI50 with SF-539 CNS is 1.71 µM; in the assay on HL-60(TB) leukemia it was 1.4 µM; in the assay on HOP-62 NSCLC it was 1.76 µM; in the assay with KM12 colon, 1.93 µM. The TGI in the assay with SK-MEL-28 melanoma was 3.13 µM; in the assay with T-47D breast, 4.14 µM; in the assay on SN12C renal it was 3.15 µM; in the assay on OVCAR-3 ovarian, 3.81 µM; in the assay on SK-MEL-2 melanoma, 3.94 µM; in the assay with MCF7 breast, 3.39 µM. The TGI in the assay with SF-539 CNS was determined as 3.12 µM; in the assay with HL-60(TB) leukemia, 3.25 µM; in the assay with HOP-62 NSCLC, 3.64 µM; in the assay on KM12 colon, 3.81 µM.
In the case of `CCC(=O)Nc1ccc2c(c1)CN1C(=O)c3ccccc3C1=N2`, the GI50 in the assay on SK-MEL-28 melanoma, with T-47D breast, in the assay with SN12C renal, in the assay with OVCAR-3 ovarian, with SK-MEL-2 melanoma and in the assay with MCF7 breast was greater than 100 µM each time. The GI50 in the assay on SF-539 CNS, with HL-60(TB) leukemia, in the assay with HOP-62 NSCLC and in the assay on KM12 colon was greater than 100 µM in each case. For the same molecule, the TGI in the assay with SK-MEL-28 melanoma, in the assay with T-47D breast, in the assay with SN12C renal, with OVCAR-3 ovarian, in the assay with SK-MEL-2 melanoma and in the assay on MCF7 breast was greater than 100 µM throughout. The TGI with SF-539 CNS, in the assay on HL-60(TB) leukemia, with HOP-62 NSCLC and in the assay with KM12 colon was greater than 100 µM each time.
